This is an account of results in patent publication US20210261539A1, “COMPOUND HAVING BET INHIBITORY ACTIVITY AND PREPARATION METHOD AND USE THEREFOR” (Shanghai Haihe Pharmaceutical Co., Ltd., priority 2018, published 2021).

In the test the target is T1, BRD4 BD1 (Homo sapiens, UniProt O60885).
T1 construct: Protein BRD4 BD1 used in the assay was purchased from Active Motif (cat. 31380); purchased Active Motif 31380
The experiment in a line: HTRF in vitro enzyme activity assay, inhibition of BRD4 BD1 binding to acetylated H4 peptide. As to conditions: IC50 values of the compounds against BRD4 BD1 binding; class symbols A/B/C. On the procedure: Effect Examples: In Vitro Enzyme Activity Assay
Half inhibitory activity (IC50) of the compounds of the invention against the bromodomain protein BRD4 BD1 was determined in the present Examples.
The compounds of the invention were tested for inhibitory activity against BRD4 BD1 with Homogeneous Time-Resolved Fluorescence (HTRF).
2. Reagents, Consumable Materials and Instruments:
Protein BRD4 BD1 used in the assay was purchased from Active Motif (cat. 31380); streptavidin XL-665 (#610SAXLA) and EPIgeneous Binding Domain Kit A (#62BDAPEG) were both purchased from Cisbio Bioassays; [Lys(5,8,12,16)Ac] H4(1-21)-biotin (#64989), [Lys(5,8,12,16)Ac]H4(1-25) were available from Anaspec; OTX015 and ABBV-075 were purchased from Selleckchem Co. The 384-well ProxiPlate (#6008280) was purchased from Perkinelmer Co. The Laboratory microplate reader (Envision 2104) was available from PerkinElmer Co. The water used in the assay was Millipore-Q pure water.
3. Formulation of the Compound
10 mM DMSO stock solution of the test compound was diluted to 1 mM in DMSO, and then diluted 10-fold in Binding Domain dilution buffer (purchased from Cisbio Bioassays) for use (DMSO concentration in the final system was 0.1%), including 5 concentrations in 1:5 gradient.
4. Assay Protocol: 1 Batch, 2 Repeats
1) 5 μL of test compound was transferred to 45 μL Binding Domain dilution buffer.
2) 2 μL of 1× compound (4 μL Binding Domain dilution buffer: positive control; 6 μL enzyme buffer (purchased from Cisbio Bioassays): negative control) was transferred to a reaction plate.
3) 4 μL of 5×BRD 4(1) was added to the reaction plate (30 nM in the final system).
4) 4 μL of 5×[Lys(5,8,12,16)Ac] H4(1-21)-biotin was added to the reaction plate, and the plate was covered with a film and incubated at 37° C. for 30 min.
5) A detection mixture of SA-XL665 (2×) and anti-H3K9me0-Eu(K) (2×) was prepared in detection buffer (purchased from Cisbio Bioassays).
6) 10 μL of detection mixture (2×) was added to each well, incubated at RT for 3 h. The mp value was read by microplate reader Envision with the following parameters: […]
A general note: Time-resolved FRET reads energy transfer from a long-lived donor to a nearby acceptor.

SMILES strings stand for the structures.

On to `C[C@@H]1C(=O)N(C)c2cnc(N3C(=O)c4c(cccc4[S+](C)[O-])C3c3cccnc3)nc2N1C` (stereo partly drawn) [A102-P2/P3, (7R)-5,7,8-trimethyl-2-(4-(methylsulfinyl)-3-oxo-1-(pyridin-3-yl)isoindolin-2-yl)-7,8-dihydropteridin-6(5H)-one], for which the IC50 (as a rule, the concentration needed to halve the response being measured) is not above 10 nM. For the molecule `C[C@H]1Oc2nc(N3C(=O)c4ccccc4C3c3ccc(F)nc3)ncc2N(C)C1=O` (single isomer, unassigned) [Example A105-P1], the half-inhibitory concentration (IC50) was in the range of 10 to 100 nM.

For the molecule `CC1C(=O)N(C)c2c(F)cc(N3C(=O)CCC3c3ccc(Cl)cc3)cc2N1C1CC1` (single isomer, unassigned) [Example A15-P1-1, 6-(2-(4-chlorophenyl)-5-oxopyrrolidin-1-yl)-4-cyclopropyl-8-fluoro-1,3-dimethyl-3,4-dihydroquinoxalin-2(1H)-one], the IC50 is not above 10 nM. `C[C@@H]1C(=O)N(C)c2ccc(N3C(=O)c4ccccc4C3c3cccnc3)nc2N1CCF` (single isomer, unassigned) [Example A55-P2, 4-(2-fluoroethyl)-1,3-dimethyl-6-(1-oxo-3-(pyridin-3-yl)isoindolin-2-yl)-3,4-dihydropyrido [2,3-b]pyrazin-2(1H)-one] had an IC50 not above 10 nM.

`CC1C(=O)N(C)c2ccc(N3C(=O)c4ccccc4C3c3ccc(F)cc3)nc2N1C1CC1` (single isomer, unassigned) [Example A23P4, 4-cyclopropyl-6-(1-(4-fluorophenyl)-3-oxoisoindolin-2-yl)-1,3-dimethyl-3,4-dihydropyrido[2,3-b]pyrazin-2(1H)-one] displayed an IC50 not above 10 nM. As for `COC(=O)c1cccc2c1C(=O)N(c1ccc3c(n1)N(C1CC1)C(C)C(=O)N3C)C2c1ccc(F)cc1` (single isomer, unassigned) [Example A80-P3, Methyl 2-(4-cyclopropyl-1,3-dimethyl-2-oxo-1,2,3,4-tetrahydropyrido[2,3-b]pyrazin-6-yl)-1-(4-fluorophenyl)-3-oxoisoindoline-4-carboxylate], the IC50 was not above 10 nM. On to `C[C@H]1Oc2nc(N3C(=O)c4c([S+](C)[O-])cccc4C3(O)c3cccnc3)ccc2N(C)C1=O` (single isomer, unassigned) [Example A129-P3], for which the IC50 is 10 to 100 nM. For `CC1C(=O)N(C)c2ccc(N3C(=O)c4c(cccc4[S+](C)[O-])C3c3cccnc3)nc2N1C1CC1` (single isomer, unassigned) [Example A60-P2], the IC50 was not above 10 nM. `CC1C(=O)N(C)c2ccc(N3C(=O)c4cc(C(=O)N5CCN(C)CC5)ccc4C3c3ccc(F)cc3)nc2N1C1CC1` (single isomer, unassigned) [Example A78-P4, 4-cyclopropyl-6-(1-(4-fluorophenyl)-5-(4-methylpiperazine-1-carbonyl)-3-oxoisoindolin-2-yl)-1,3-dimethyl-3,4-dihydropyrido[2,3-b]pyrazin-2(1H)-one]: the IC50 was not above 10 nM. On to `C[C@H]1Oc2nc(N3C(=O)c4c(cccc4C(C)(C)O)C3c3ccc(F)cc3)ccc2N(C)C1=O` (single isomer, unassigned) [Example A119-P1], for which the IC50 was not above 10 nM. The molecule `CC1C(=O)N(CC(F)(F)F)c2ccc(N3C(=O)c4ccccc4C3c3cccnc3)nc2N1C1CC1` (stereo not drawn) [Example A46-P4, 4-cyclopropyl-1-(2,2,2-trifluoroethyl)-3-methyl-6-(1-oxo-3-(pyridin-3-yl)isoindolin-2-yl)-3,4-dihydropyrido [2,3-b]pyrazin-2(1H)-one] returned a half-maximal inhibitory concentration (IC50) not above 10 nM. Regarding `CC1C(=O)N(CCF)c2ccc(N3C(=O)c4ccccc4C3c3cccnc3)nc2N1C1CC1` (stereo not drawn) [Example A52-P4, 4-cyclopropyl-1-(2-fluoroethyl)-3-methyl-6-(1-oxo-3-(pyridin-3-yl)isoindolin-2-yl)-3,4-dihydropyrido [2,3-b]pyrazin-2(1H)-one], the IC50 is not above 10 nM. As for `C[C@H]1Oc2cc(N3C(=O)c4ccccc4C3c3cccnc3)ncc2N(C)C1=O` (single isomer, unassigned) [Example A123-P2], the IC50 was 100 to 1000 nM. On to `CC1Oc2nc(N3C(=O)c4ccccc4C3c3ccc(F)cc3)ccc2N(CC(F)(F)F)C1=O` (single isomer, unassigned) [Example A120-P1, 6-(1-(4-fluorophenyl)-3-oxoisoindol-2-yl)-3-methyl-1-(2,2,2-trifluoroethyl)-1H-pyrido[2,3-B][1,4]oxazin-2(3H)-one], for which the IC50 fell in the range of 100 to 1000 nM. Molecule `CC1C(=O)N(C)c2ccc(N3C(=O)c4ccccc4C3c3cccnc3)nc2N1CC(F)(F)F` (stereo not drawn) [Example A59-P2, 1,3-dimethyl-6-(1-oxo-3-(pyridin-3-yl)isoindolin-2-yl)-4-(2,2,2-trifluoroethyl)-3,4-dihydropyrido[2,3-b]pyrazin-2(1H)-one] showed an IC50 not above 10 nM. In turn, `CC1C(=O)N(C)c2cnc(-n3c(=O)c4ccccc4n3-c3ccc(Cl)cc3)nc2N1C1CC1` (single isomer, unassigned) [Compound A89-P3] returned an IC50 not above 10 nM. Molecule `CCN1C(=O)[C@@H](C)Oc2nc(N3C(=O)c4ccccc4C3c3cccnc3)ccc21` (stereo partly drawn) [Example A108-P3, (R)-1-ethyl-3-methyl-6-(1-oxo-3-(pyridin-3-yl)isoindolin-2-yl)-1H-pyrido[2,3-B][1,4]oxazin-2(3H)-one] gave an IC50 of 10 to 100 nM.

`CC1C(=O)N(C)c2cnc(N3C(=O)c4ccccc4C3c3ccccc3)nc2N1C1CC1` (single isomer, unassigned) [Example A92-P4, 8-cyclopropyl-5,7-dimethyl-2-(1-oxo-3-phenylisoindolin-2-yl)-7,8-dihydropteridin-6(5H)-one]: the IC50 was not above 10 nM. In turn, `C[C@H]1Oc2nc(N3C(=O)c4ccccc4C3c3ccc(F)cn3)ccc2N(C)C1=O` (single isomer, unassigned) [Example A110-P1] came in with an IC50 not above 10 nM. Take `CC1C(=O)N(C)c2ccc(-n3c(=O)c4ccccc4n3-c3ccc(Cl)cc3)nc2N1C1CC1` (single isomer, unassigned) [Example A12-P1, 6-(1-(4-chlorophenyl)-3-oxo-1,3-dihydro-2H-indazol-2-yl)-4-cyclopropyl-1,3-dimethyl-3,4-dihydropyrido[2,3-b]pyrazin-2(1H)-one]: the IC50 is not above 10 nM. Regarding `COC(=O)c1cccc2c1C(=O)N(c1ccc3c(n1)N(C1CC1)C(C)C(=O)N3C)C2c1cccnc1` (single isomer, unassigned) [Example A84-P4, Methyl 2-(4-cyclopropyl-1,3-dimethyl-2-oxo-1,2,3,4-tetrahydropyrido[2,3-b]pyrazin-6-yl)-3-oxo-1-(pyridin-3-yl)isoindoline-4-carboxylate], the IC50 was not above 10 nM. As for `CC1C(=O)N(C)c2ccc(N3C(=O)c4cc(C(=O)O)ccc4C3c3ccc(F)cc3)nc2N1C1CC1` (stereo not drawn) [A77-P1/P4, 2-(4-cyclopropyl-1,3-dimethyl-2-oxo-1,2,3,4-tetrahydropyrido[2,3-b]pyrazin-6-yl)-1-(4-fluorophenyl)-3-oxoisoindoline-5-carboxylic acid], the IC50 was not above 10 nM. Then `Cc1ccc(-n2c3ccccc3c(=O)n2-c2ccc3c(n2)N(C2CC2)C(C)C(=O)N3C)cn1` (single isomer, unassigned) [Example A50-P3, 6-(1-(6-methyl-pyridin-3-yl)-3-oxo-1,3-dihydro-2H-indazol-2-yl)-4-cyclopropyl-1-methyl-3-methyl-3,4-dihydropyridine [2,3-b]pyrazin-2(1H)-one], with not above 10 nM; and `C[C@@H]1C(=O)N(C)c2cnc(N3C(=O)c4cc(F)ccc4C3c3cccnc3)nc2N1C` (single isomer, unassigned) [Example A97-P1], with not above 10 nM; and `C[C@@H]1C(=O)N(C)c2cnc(N3C(=O)c4c(cccc4C(C)(C)O)C3c3ccc(F)cc3)nc2N1C1CC1` (stereo partly drawn) [Example A94-P4, (7R)-8-cyclopropyl-2-(3-oxo-1-(4-fluorophenyl)-4-(2-hydroxyprop-2-yl)isoindolin-2-yl)-5,7-dimethyl-7,8-dihydropteridin-6(5H)-one], with not above 10 nM. For `CCN1C(=O)C(C)N(C2CCCC2)c2nc(-n3c(=O)c4ccccc4n3-c3ccc(Cl)cc3)ccc21` (racemic) [Example A28, 6-(1-(4-chlorophenyl)-3-oxo-1,3-dihydro-2H-indazol-2-yl)-4-cyclopentyl-1-ethyl-3-methyl-3,4-dihydropyridine [2,3-b]pyrazin-2(1H)-one], the IC50 was in the range of 10 to 100 nM. Regarding `[2H]C([2H])([2H])N1C(=O)C(C)N(C2CC2)c2nc(N3C(=O)c4ccccc4C3c3cccnc3)ccc21` (stereo not drawn) [Example A43-P4, 4-cyclopropyl-3-methyl-1-(trideuteromethyl)-6-(1-oxo-3-(pyridin-3-yl)isoindolin-2-yl)-3,4-dihydropyrido [2,3-B]pyrazin-2(1H)-one], the IC50 is not above 10 nM.
